This is an account of results in PMC11228755 (RSC Advances, 2024).

Series [1] deals with Salmonella typhimurium TA102. The following applies: positive control, 20 μg per plate, +S9.
Series [2] relates to Salmonella typhimurium TA100. The experiment in a line: Ames test. The following applies: positive control, 1 μg per plate, −S9.
The subject of series [3] is Salmonella typhimurium TA1535. Nature of the series: Ames test. The following applies: positive control, 1 μg per plate, −S9.
The test system of series [4] is Salmonella typhimurium TA98. Nature of the series: Ames test. Particulars: positive control, 50 μg per plate, −S9.
For series [5], the system named is Salmonella typhimurium TA97a. The experiment in a line: Ames test. Particulars: positive control, 50 μg per plate, −S9.

Molecules are shown by their SMILES. Several values for one entry are separate records, joined by “and”; a condition that tells them apart may be missing. Equal entries are not always repeated. Marks after values point to notes of the source that are not given here.

With `Nc1ccc2cc3ccccc3cc2c1` [2-Aminoanthracene, 2-aminoanthracene], the “Number of revertants TA102” value in series [1] was 2121 ± 21 ^e. Take `[N-]=[N+]=[N-].[Na+]` [Sodium azide, sodium azide]: in series [2], the “Number of revertants TA100” value is recorded as 1697 ± 54 ^c. The “Number of revertants TA1535” value in series [3] is 1190 ± 40 ^c and 1333 ± 53 ^c. In the case of `CN(C)c1ccc(N=NS(=O)(=O)[O-])cc1.[Na+]` [Dioxone, dioxone], the “Number of revertants TA98” value in series [4] is recorded as 1111 ± 117 ^a. Also, in series [5], the “Number of revertants TA97a” value was 1872 ± 104 ^a.
